Measured values taken from patent US10919896B2, “Preparation and uses of pyrimidinone derivatives” (Cancer Research Technology Limited, priority 2016, dated 2021).
Structures can show the parent of a compound that is named as a salt. Where two headings read alike, the source gives them in different places.

How the values were obtained:
[1] = system: Cdc7 (pS53MCM2 levels in SW48 cells); experiment: Cdc7 Cell Pharmacodynamics Assay Method 3: pS53MCM2 levels in SW48 cells, 6 hours; assay type: cell-based; details: for EC50: Homo sapiens, SW48, 6 h, read-out: Biomarker Method 3 (pEC50) (converted)
[2] = target: Cdc7/ASK (Homo sapiens, UniProt O00311); experiment: Cdc7 Biochemical Assay Method 4: off-chip mobility shift assay (Carna Biosciences); set-up: purchased Carna Biosciences; host or cells: baculovirus expression system; details: off-chip MSA, MCM2 peptide, 5 hours; read-out: Biochemical Method 4 (pIC50) (converted)
Protocol: This protocol describes a method for assaying Cdc7/ASK for activity. The assay is an off-chip mobility shift assay (MSA) run at Carna Biosciences.
1. Preparation of Test Compound Solution.
The test compound was dissolved in and diluted with dimethylsulfoxide (DMSO) to achieve 100-fold higher concentration which was specified by the sponsor. Then the solution was further 25-fold diluted with assay buffer to make the final test compound solution. Reference compounds for assay control were prepared similarly.
Cdc7/ASK: Full-length human Cdc7 [1-574(end) amino acids of accession number NP_003494.1] was co-expressed as N-terminal GST-fusion protein (92 kDa) with Dbf4(ASK) [1-674(end) amino acids of accession number NP_006707.1] using baculovirus expression system. GST-Cdc7 was purified by using glutathione sepharose chromatography.
3. Assay Reagents and Procedures
Off-chip Mobility Shift Assay (MSA)
1) The […] of ×2 kinase solution were prepared with assay buffer (20 mM HEPES, 0.01% Triton X-100, 1 mM DTT, pH 7.5) and mixed and incubated in a well of polypropylene 384 well microplate for 5 hours at room temperature. 2) […] of Termination Buffer (QuickScout Screening Assist MSA; Carna Biosciences) was added to the well. 3) The reaction mixture was applied to LabChip system (Perkin Elmer), and the product and substrate peptide peaks were separated and quantitated. 4) The kinase reaction was evaluated by the product ratio calculated from peak heights of product (P) and substrate (S) peptides (P/(P+S)).
Reaction time is 5 hours.
The readout value of reaction control (complete reaction mixture) was set as a 0% inhibition, and the readout value of background (Enzyme(−)) was set as a 100% inhibition, then the percent inhibition of each test solution was calculated.
IC50 value was calculated from concentration vs. % Inhibition curves by fitting to a four parameter logistic curve.

Sequence of Cdc7/ASK (O00311 whole entry): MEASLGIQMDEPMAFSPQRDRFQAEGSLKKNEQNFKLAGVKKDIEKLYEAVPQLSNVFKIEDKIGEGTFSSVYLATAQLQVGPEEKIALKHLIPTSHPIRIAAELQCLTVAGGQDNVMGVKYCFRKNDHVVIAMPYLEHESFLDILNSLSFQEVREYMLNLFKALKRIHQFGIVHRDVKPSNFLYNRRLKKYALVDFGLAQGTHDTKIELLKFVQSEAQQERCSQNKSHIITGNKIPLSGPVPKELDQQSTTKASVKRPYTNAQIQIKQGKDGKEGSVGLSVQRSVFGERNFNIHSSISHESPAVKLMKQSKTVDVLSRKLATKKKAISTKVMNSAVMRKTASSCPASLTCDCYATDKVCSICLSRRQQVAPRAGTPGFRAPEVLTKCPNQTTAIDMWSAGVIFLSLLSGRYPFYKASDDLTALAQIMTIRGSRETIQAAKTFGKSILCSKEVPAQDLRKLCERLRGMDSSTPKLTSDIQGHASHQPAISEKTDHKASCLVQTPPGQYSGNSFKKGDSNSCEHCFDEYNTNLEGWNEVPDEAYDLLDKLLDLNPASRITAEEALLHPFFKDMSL
Sequence of Cdc7/ASK (Q9UBU7 whole entry partner): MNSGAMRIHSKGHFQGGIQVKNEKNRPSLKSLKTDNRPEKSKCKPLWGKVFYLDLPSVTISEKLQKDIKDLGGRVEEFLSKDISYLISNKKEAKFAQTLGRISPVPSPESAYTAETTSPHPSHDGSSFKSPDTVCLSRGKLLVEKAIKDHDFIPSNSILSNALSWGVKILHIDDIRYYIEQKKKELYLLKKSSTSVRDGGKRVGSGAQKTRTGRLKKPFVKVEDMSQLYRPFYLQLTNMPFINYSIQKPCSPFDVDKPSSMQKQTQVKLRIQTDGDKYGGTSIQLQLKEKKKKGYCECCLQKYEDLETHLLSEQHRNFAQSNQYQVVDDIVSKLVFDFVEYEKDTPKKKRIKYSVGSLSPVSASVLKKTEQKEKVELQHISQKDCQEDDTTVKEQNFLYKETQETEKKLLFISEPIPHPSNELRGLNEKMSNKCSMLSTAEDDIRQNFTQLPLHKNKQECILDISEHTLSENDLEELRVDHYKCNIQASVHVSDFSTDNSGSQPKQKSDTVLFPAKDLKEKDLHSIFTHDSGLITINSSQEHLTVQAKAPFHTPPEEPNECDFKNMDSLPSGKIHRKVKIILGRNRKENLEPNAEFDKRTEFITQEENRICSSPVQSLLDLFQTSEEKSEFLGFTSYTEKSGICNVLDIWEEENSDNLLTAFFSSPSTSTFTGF

Biomarker Method 3 (pEC50) ([1]; hydrochloride) | IC50 [2] | Biomarker Method 3 (pEC50) [1] | EC50 [1] | Structure (SMILES)
6.16 | 11.7 nM | – | – | CC(C)(F)C1CN(c2nc(-c3ccnc(F)c3)[nH]c(=O)c2Cl)CCN1 (single isomer, unassigned) [Compound 382, 5-chloro-4-[3-(1-fluoro-1-methyl-ethyl)piperazin-1-yl]-2-(2-fluoro-4-pyridyl)-1H-pyrimidin-6-one hydrochloride]
– | 4.47 nM | 6.67 | – | Cl.O=c1[nH]c(-c2ccnc(F)c2)nc(N2CCNCC2C(F)(F)F)c1Cl (single isomer, unassigned) [Compound 383]
– | 42.7 nM | 5.33 | – | Cl.O=c1[nH]c(-c2ccnc(F)c2)nc(N2CCNCC2C(F)(F)F)c1Cl (single isomer, unassigned) [Compound 384]
– | 6.03 nM | 6.51 | – | Cl.O=c1[nH]c(-c2ccncc2)nc(N2CCNCC2C(F)(F)F)c1Cl (single isomer, unassigned) [Compound 387]
– | 91.2 nM | 5.29 | – | Cl.O=c1[nH]c(-c2ccncc2)nc(N2CCNCC2C(F)(F)F)c1Cl (single isomer, unassigned) [Compound 388]
– | 21.4 nM | 5.68 | – | Cl.O=c1[nH]c(-c2ccnc(F)c2)nc(N2CCNCC2C(F)F)c1Cl (single isomer, unassigned) [Compound 389]
– | 4.27 nM | 6.97 | – | Cl.O=c1[nH]c(-c2ccnc(F)c2)nc(N2CCNCC2C(F)F)c1Cl (single isomer, unassigned) [Compound 390]
– | 13.8 nM | 5.90 | – | Cl.O=c1[nH]c(-c2ccnc(F)c2)nc(N2CCNC(C3CC3)C2)c1Cl (single isomer, unassigned) [Compound 393]
– | 70.8 nM | 5.26 | – | Cl.O=c1[nH]c(-c2ccnc(F)c2)nc(N2CCNC(C3CC3)C2)c1Cl (single isomer, unassigned) [Compound 394]
5.67 | 7.76 nM | – | – | C[C@H]1CN[C@@H](C(F)(F)F)CN1c1nc(-c2ccnc(F)c2)[nH]c(=O)c1Cl.Cl (single isomer, unassigned) [Compound 395, Cis-5-chloro-2-(2-fluoro-4-pyridyl)-4-[2-methyl-5-(trifluoromethyl)piperazin-1-yl]-1H-pyrimidin-6-one hydrochloride]
5.11 | 135 nM | – | – | C[C@H]1CN[C@@H](C(F)(F)F)CN1c1nc(-c2ccnc(F)c2)[nH]c(=O)c1Cl.Cl (single isomer, unassigned) [Compound 396, Cis-5-chloro-2-(2-fluoro-4-pyridyl)-4-[2-methyl-5-(trifluoromethyl)piperazin-1-yl]-1H-pyrimidin-6-one hydrochloride]
– | 8.51 nM | – | 759 nM | O=c1[nH]c(-c2ccnc(F)c2)nc(N2CCNCC2C(F)(F)F)c1Cl (centres unmarked) [Compound 313, 5-chloro-2-(2-fluoro-4-pyridyl)-4-[2-(trifluoromethyl)piperazin-1-yl]-1H-pyrimidin-6-one hydrochloride]
– | 5.25 nM | – | 389 nM | O=c1[nH]c(-c2ccnc(F)c2)nc(N2CCNCC(F)C2)c1Cl (centres unmarked) [Compound 373]
– | 5.75 nM | – | 437 nM | O=c1[nH]c(-c2ccncc2)nc(N2CCNCC(F)(F)C2)c1Cl [Compound 374]
– | 7.41 nM | – | 1230 nM | O=c1[nH]c(-c2ccnc(F)c2)nc(N2CCNCC(C(F)(F)F)C2)c1Cl (centres unmarked) [Compound 375]
– | 5.5 nM | – | 141 nM | O=c1[nH]c(-c2ccnc(F)c2)nc(N2CCNCC2C(F)F)c1Cl (centres unmarked) [Compound 376]
– | 11.5 nM | 5.87 | – | Cl.O=c1[nH]c(-c2ccnc(F)c2)nc(N2CCNCC(C(F)(F)F)C2)c1Cl (centres unmarked) [Compound 385]
– | 5.62 nM | 6.00 | – | Cl.O=c1[nH]c(-c2ccnc(F)c2)nc(N2CCNCC(C(F)(F)F)C2)c1Cl (centres unmarked) [Compound 386]
– | 35.5 nM | – | 3550 nM | O=c1[nH]c(-c2ccncc2)nc(N2CCNCC2C(F)F)c1Cl (centres unmarked) [Compound 391]
– | 38.9 nM | – | 5750 nM | CC(F)(F)C1CNCCN1c1nc(-c2ccnc(F)c2)[nH]c(=O)c1Cl (centres unmarked) [Compound 392]
– | 12.6 nM | – | 1660 nM | O=c1[nH]c(-c2ccncc2F)nc(N2CCNCC(F)(F)C2)c1Cl [Compound 399, 5-chloro-4-(6,6-difluoro-1,4-diazepan-1-yl)-2-(3-fluoro-4-pyridyl)-1H-pyrimidin-6-one hydrochloride]
– | 5.75 nM | – | 195 nM | C[C@@H]1CNCCN1c1nc(-c2ccncc2F)[nH]c(=O)c1Cl [Compound 400]
– | 4.79 nM | – | 437 nM | O=c1[nH]c(-c2ccnc(Cl)c2)nc(N2CCNCC(F)(F)C2)c1Cl [Compound 401]
– | 9.33 nM | – | 708 nM | CN1CCN(c2nc(-c3ccnc(F)c3)[nH]c(=O)c2Cl)CC(F)(F)C1 [Compound 415, 5-chloro-4-(6,6-difluoro-4-methyl-1,4-diazepan-1-yl)-2-(2-fluoro-4-pyridyl)-1H-pyrimidin-6-one]

Structure (SMILES) | Biomarker Method 3 (pEC50) ([1]; hydrochloride) | IC50 [2] | Biomarker Method 3 (pEC50) [1] | EC50 [1]
O=c1[nH]c(-c2ccnc(F)c2)nc(N2CCNCC23CC3)c1Cl [Compound 377] | – | 4.37 nM | – | 148 nM
